Our source for the IC50 values is patent US8309718B2, “4-pyrazolyl-N-arylpyrimidin-2-amines and 4-pyrazolyl-N-heteroarylpyrimidin-2-amines as janus kinase inhibitors” (Incyte Corporation, priority 2007, dated 2012).

Structures are written as SMILES.

In this experiment the target is T1, human JAK2 (Homo sapiens, UniProt O60674).
T1 construct: JAK2 (a.a. 828-1132); His tag (N); made in house; host or cells: insect cells (baculovirus)
T1 sequence (O60674 828-1132): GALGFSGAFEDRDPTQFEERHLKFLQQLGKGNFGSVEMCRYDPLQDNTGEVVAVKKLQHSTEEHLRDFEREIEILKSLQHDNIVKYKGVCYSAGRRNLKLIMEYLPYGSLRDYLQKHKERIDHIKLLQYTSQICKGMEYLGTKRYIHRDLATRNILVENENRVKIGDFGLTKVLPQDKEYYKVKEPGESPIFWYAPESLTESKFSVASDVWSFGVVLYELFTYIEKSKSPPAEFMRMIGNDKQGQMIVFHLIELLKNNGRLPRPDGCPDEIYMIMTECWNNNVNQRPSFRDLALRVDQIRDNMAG
Put plainly: In vitro JAK kinase assay (HTRF, phosphorylation of biotinylated peptide). It is filed as biochemical. Conditions: catalytic domain a.a. 828-1132, 30 μM ATP, 500 nM peptide, room temperature 1 hr; read-out: JAK-2 IC50. The method in brief:
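His-tagged human JAK2 catalytic domain (a.a. 828-1132), baculovirus/insect-cell expressed; phosphorylation of 500 nM biotinylated peptide at 30 μM ATP in 50 mM Tris pH 7.8, 100 mM NaCl, 5 mM DTT, 0.01% BSA. 1 h at room temperature, EDTA stop, HTRF read (Eu-Py20/SA-APC); IC50.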
A word on the IC50: it is the concentration needed to halve the response being measured. In the case of `COc1cnc(Nc2cccc(-c3cnco3)c2)nc1-c1cnn(C(CC#N)C2CCCC2)c1` (racemic) [Example 132, 3-cyclopentyl-3-(4-(5-methoxy-2-(3-(oxazol-5-yl)phenylamino)pyrimidin-4-yl)-1H-pyrazol-1-yl)propanenitrile], the IC50 is under 100 nM.

On to `COc1cnc(Nc2ccc(N3CCOCC3=O)cc2)nc1-c1cnn(C(CC#N)C2CCCC2)c1` (racemic) [Example 133, 3-cyclopentyl-3-(4-(5-methoxy-2-(4-(3-oxomorpholino)phenylamino)pyrimidin-4-yl)-1H-pyrazol-1-yl)propanenitrile], for which the 50% inhibitory concentration (IC50) was under 100 nM.

For `COc1cnc(Nc2cccc(-c3ccnc(C)n3)c2)nc1-c1cnn(C(CC#N)C2CCCC2)c1` (racemic) [Example 134, 3-cyclopentyl-3-(4-(5-methoxy-2-(3-(2-methylpyrimidin-4-yl)phenylamino)pyrimidin-4-yl)-1H-pyrazol-1-yl)propanenitrile], the half-inhibitory concentration (IC50) is under 100 nM.

Regarding `COc1cnc(Nc2ccc(N3CCCCC3=O)cc2)nc1-c1cnn(C(CC#N)C2CCCC2)c1` (racemic) [Example 135, 3-cyclopentyl-3-(4-(5-methoxy-2-(4-(2-oxopiperidin-1-yl)phenylamino)pyrimidin-4-yl)-1H-pyrazol-1-yl)propanenitrile], the IC50 is under 100 nM.

As to `COc1cnc(Nc2ccc(N3CCOC3=O)cc2)nc1-c1cnn(C(CC#N)C2CCCC2)c1` (racemic) [Example 136, 3-cyclopentyl-3-(4-(5-methoxy-2-(4-(2-oxooxazolidin-3-yl)phenylamino)pyrimidin-4-yl)-1H-pyrazol-1-yl)propanenitrile], the IC50 was under 100 nM.

Consider `CN1CCN(C(=O)c2cccc(Nc3nccc(-c4cnn(C(CC#N)C5CCCC5)c4)n3)c2)CC1` (racemic) [Example 137, 3-cyclopentyl-3-(4-(2-(3-(4-methylpiperazine-1-carbonyl)phenylamino)pyrimidin-4-yl)-1H-pyrazol-1-yl)propanenitrile], for which the IC50 is under 100 nM.

As to `N#CCC(C1CCCC1)n1cc(-c2ccnc(Nc3cccc(C(=O)N4CCN(CCO)CC4)c3)n2)cn1` (racemic) [Example 138, 3-cyclopentyl-3-(4-(2-(3-(4-(2-hydroxyethyl)piperazine-1-carbonyl)phenylamino)pyrimidin-4-yl)-1H-pyrazol-1-yl)propanenitrile], the IC50 was under 100 nM.

For `N#CCC(C1CCCC1)n1cc(-c2ccnc(Nc3cccc(C(=O)N4CCCC4)c3)n2)cn1` (racemic) [Example 139, 3-cyclopentyl-3-(4-(2-(3-(pyrrolidine-1-carbonyl)phenylamino)pyrimidin-4-yl)-1H-pyrazol-1-yl)propanenitrile], the IC50 is under 100 nM.

`N#CCC(C1CCCC1)n1cc(-c2ccnc(Nc3cccc(C(=O)N4CCNC(=O)C4)c3)n2)cn1` (racemic) [Example 140, 3-cyclopentyl-3-(4-(2-(3-(3-oxopiperazine-1-carbonyl)phenylamino)pyrimidin-4-yl)-1H-pyrazol-1-yl)propanenitrile]: the 50% inhibitory concentration (IC50) is under 100 nM.

On to `N#CCC(C1CCCC1)n1cc(-c2ccnc(Nc3cccc(C(=O)N4CCC4)c3)n2)cn1` (racemic) [Example 142, 3-(4-(2-(3-(azetidine-1-carbonyl)phenylamino)pyrimidin-4-yl)-1H-pyrazol-1-yl)-3-cyclopentylpropanenitrile], for which the IC50 is under 100 nM.

`CC(=O)N1CCN(C(=O)c2cccc(Nc3nccc(-c4cnn(C(CC#N)C5CCCC5)c4)n3)c2)CC1` (racemic) [Example 143, 3-(4-(2-(3-(4-acetylpiperazine-1-carbonyl)phenylamino)pyrimidin-4-yl)-1H-pyrazol-1-yl)-3-cyclopentylpropanenitrile]: the IC50 was under 100 nM.

Consider `N#CCC(C1CCCC1)n1cc(-c2ccnc(Nc3cccc(C(=O)N4CCC(Cc5cccnc5)CC4)c3)n2)cn1` (racemic) [Example 144, 3-cyclopentyl-3-(4-(2-(3-(4-(pyridin-3-ylmethyl)piperidine-1-carbonyl)phenylamino)pyrimidin-4-yl)-1H-pyrazol-1-yl)propanenitrile], for which the IC50 is under 100 nM.

For `N#CCC(C1CCCC1)n1cc(-c2ccnc(Nc3cccc(C(=O)NCc4cccnc4)c3)n2)cn1` (racemic) [Example 146, 3-(4-(1-(2-cyano-1-cyclopentylethyl)-1H-pyrazol-4-yl)pyrimidin-2-ylamino)-N-(pyridin-3-ylmethyl)benzamide], the concentration for half-maximal inhibition (IC50) is under 100 nM.

Regarding `N#CCC(C1CCCC1)n1cc(-c2ccnc(Nc3cccc(C(=O)N4CCOCC4)c3)n2)cn1` (racemic) [Example 147, 3-cyclopentyl-3-(4-(2-(3-(morpholine-4-carbonyl)phenylamino)pyrimidin-4-yl)-1H-pyrazol-1-yl)propanenitrile], the concentration for half-maximal inhibition (IC50) is under 100 nM.

For `Cc1cc(CNC(=O)c2cccc(Nc3nccc(-c4cnn(C(CC#N)C5CCCC5)c4)n3)c2)no1` (racemic) [Example 148, 3-(4-(1-(2-cyano-1-cyclopentylethyl)-1H-pyrazol-4-yl)pyrimidin-2-ylamino)-N-((5-methylisoxazol-3-yl)methyl)benzamide], the IC50 is under 100 nM.

In the case of `N#CCC(C1CCCC1)n1cc(-c2ccnc(Nc3cccc(C(=O)N4CCC(O)(c5ccccc5)CC4)c3)n2)cn1` (racemic) [Example 150, 3-cyclopentyl-3-(4-(2-(3-(4-hydroxy-4-phenylpiperidine-1-carbonyl)phenylamino)pyrimidin-4-yl)-1H-pyrazol-1-yl)propanenitrile], the 50% inhibitory concentration (IC50) is under 100 nM.

Turning to `N#CCC(C1CCCC1)n1cc(-c2ccnc(Nc3cccc(C(=O)N4CCC(O)(Cc5ccccc5)CC4)c3)n2)cn1` (racemic) [Example 151, 3-(4-(2-(3-(4-benzyl-4-hydroxypiperidine-1-carbonyl)phenylamino)pyrimidin-4-yl)-1H-pyrazol-1-yl)-3-cyclopentylpropanenitrile], the IC50 was under 100 nM.

Regarding `N#CCC(C1CCCC1)n1cc(-c2ccnc(Nc3cccc(C(=O)NCC4CCOCC4)c3)n2)cn1` (racemic) [Example 153, 3-(4-(1-(2-cyano-1-cyclopentylethyl)-1H-pyrazol-4-yl)pyrimidin-2-ylamino)-N-((tetrahydro-2H-pyran-4-yl)methyl)benzamide], the IC50 was under 100 nM.

As for `CN1CCC(NC(=O)c2cccc(Nc3nccc(-c4cnn(C(CC#N)C5CCCC5)c4)n3)c2)CC1` (racemic) [Example 154, 3-(4-(1-(2-cyano-1-cyclopentylethyl)-1H-pyrazol-4-yl)pyrimidin-2-ylamino)-N-(1-methylpiperidin-4-yl)benzamide], the 50% inhibitory concentration (IC50) was under 100 nM.

For the compound `N#CCC(C1CCCC1)n1cc(-c2ccnc(Nc3cccc(C(=O)N4CCC(c5ccccc5)CC4)c3)n2)cn1` (racemic) [Example 155, 3-cyclopentyl-3-(4-(2-(3-(4-phenylpiperidine-1-carbonyl)phenylamino)pyrimidin-4-yl)-1H-pyrazol-1-yl)propanenitrile], the IC50 is under 100 nM.

As to `N#CCC(C1CCCC1)n1cc(-c2ccnc(Nc3cccc(C(=O)N4CCN(c5ncccn5)CC4)c3)n2)cn1` (racemic) [Example 160, 3-cyclopentyl-3-(4-(2-(3-(4-(pyrimidin-2-yl)piperazine-1-carbonyl)phenylamino)pyrimidin-4-yl)-1H-pyrazol-1-yl)propanenitrile], the half-inhibitory concentration (IC50) was under 100 nM.

On to `N#CCC(C1CCCC1)n1cc(-c2ccnc(Nc3cccc(C(=O)NCCc4cccnc4)c3)n2)cn1` (racemic) [Example 161, 3-(4-(1-(2-cyano-1-cyclopentylethyl)-1H-pyrazol-4-yl)pyrimidin-2-ylamino)-N-(2-(pyridin-3-yl)ethyl)benzamide], for which the half-inhibitory concentration (IC50) was under 100 nM.

For `COc1ccccc1CNC(=O)c1cccc(Nc2nccc(-c3cnn(C(CC#N)C4CCCC4)c3)n2)c1` (racemic) [Example 163, 3-(4-(1-(2-cyano-1-cyclopentylethyl)-1H-pyrazol-4-yl)pyrimidin-2-ylamino)-N-(2-methoxybenzyl)benzamide], the IC50 is under 100 nM.

With `N#CCC(C1CCCC1)n1cc(-c2ccnc(Nc3cccc(C(=O)N4CCC(Oc5ccccc5)CC4)c3)n2)cn1` (racemic) [Example 164, 3-cyclopentyl-3-(4-(2-(3-(4-phenoxypiperidine-1-carbonyl)phenylamino)pyrimidin-4-yl)-1H-pyrazol-1-yl)propanenitrile], the IC50 was under 100 nM.

As for `N#CCC(C1CCCC1)n1cc(-c2ccnc(Nc3cccc(C(=O)NC4(CO)CCCC4)c3)n2)cn1` (racemic) [Example 165, 3-(4-(1-(2-cyano-1-cyclopentylethyl)-1H-pyrazol-4-yl)pyrimidin-2-ylamino)-N-(1-(hydroxymethyl)cyclopentyl)benzamide], the IC50 was under 100 nM.

As to `N#CCC(C1CCCC1)n1cc(-c2ccnc(Nc3cccc(C(=O)N4CCN(c5ccc(C#N)cc5)CC4)c3)n2)cn1` (racemic) [Example 166, 4-(4-(3-(4-(1-(2-cyano-1-cyclopentylethyl)-1H-pyrazol-4-yl)pyrimidin-2-ylamino)benzoyl)piperazin-1-yl)benzonitrile], the half-inhibitory concentration (IC50) is under 100 nM.

On to `N#CCC(C1CCCC1)n1cc(-c2ccnc(Nc3cccc(C(=O)N4CCN(c5ccccc5)CC4)c3)n2)cn1` (racemic) [Example 168, 3-cyclopentyl-3-(4-(2-(3-(4-phenylpiperazine-1-carbonyl)phenylamino)pyrimidin-4-yl)-1H-pyrazol-1-yl)propanenitrile], for which the half-inhibitory concentration (IC50) is under 100 nM.

As for `N#CCC(C1CCC1)n1cc(-c2ccnc(Nc3ccc(N4CCOCC4)cc3)n2)cn1` (racemic) [Example 171, 3-cyclobutyl-3-(4-(2-(4-morpholinophenylamino)pyrimidin-4-yl)-1H-pyrazol-1-yl)propanenitrile], the half-inhibitory concentration (IC50) was under 100 nM.

Consider `N#CCC(C1CCC1)n1cc(-c2ccnc(Nc3ccc(-n4cccn4)cc3)n2)cn1` (racemic) [Example 173, 3-(4-(2-(4-(1H-pyrazol-1-yl)phenylamino)pyrimidin-4-yl)-1H-pyrazol-1-yl)-3-cyclobutylpropanenitrile], for which the IC50 is under 100 nM.
